Data reported in PMC6920136 (Redox Biology, 2019).

Tests used:
Duox1 = Duox1 (Homo sapiens, UniProt Q9NRD9); assay: H2O2 synthesis assay in homogenates of HEK293T cells expressing Duox1/DuoxA1α; type: biochemical
Duox2 = Duox2 (Homo sapiens, UniProt Q9NRD8); assay: H2O2 synthesis assay in homogenates of HEK293T cells expressing Duox2/DuoxA2; type: biochemical
Duox2, sequence (Q9NRD8 26-1548): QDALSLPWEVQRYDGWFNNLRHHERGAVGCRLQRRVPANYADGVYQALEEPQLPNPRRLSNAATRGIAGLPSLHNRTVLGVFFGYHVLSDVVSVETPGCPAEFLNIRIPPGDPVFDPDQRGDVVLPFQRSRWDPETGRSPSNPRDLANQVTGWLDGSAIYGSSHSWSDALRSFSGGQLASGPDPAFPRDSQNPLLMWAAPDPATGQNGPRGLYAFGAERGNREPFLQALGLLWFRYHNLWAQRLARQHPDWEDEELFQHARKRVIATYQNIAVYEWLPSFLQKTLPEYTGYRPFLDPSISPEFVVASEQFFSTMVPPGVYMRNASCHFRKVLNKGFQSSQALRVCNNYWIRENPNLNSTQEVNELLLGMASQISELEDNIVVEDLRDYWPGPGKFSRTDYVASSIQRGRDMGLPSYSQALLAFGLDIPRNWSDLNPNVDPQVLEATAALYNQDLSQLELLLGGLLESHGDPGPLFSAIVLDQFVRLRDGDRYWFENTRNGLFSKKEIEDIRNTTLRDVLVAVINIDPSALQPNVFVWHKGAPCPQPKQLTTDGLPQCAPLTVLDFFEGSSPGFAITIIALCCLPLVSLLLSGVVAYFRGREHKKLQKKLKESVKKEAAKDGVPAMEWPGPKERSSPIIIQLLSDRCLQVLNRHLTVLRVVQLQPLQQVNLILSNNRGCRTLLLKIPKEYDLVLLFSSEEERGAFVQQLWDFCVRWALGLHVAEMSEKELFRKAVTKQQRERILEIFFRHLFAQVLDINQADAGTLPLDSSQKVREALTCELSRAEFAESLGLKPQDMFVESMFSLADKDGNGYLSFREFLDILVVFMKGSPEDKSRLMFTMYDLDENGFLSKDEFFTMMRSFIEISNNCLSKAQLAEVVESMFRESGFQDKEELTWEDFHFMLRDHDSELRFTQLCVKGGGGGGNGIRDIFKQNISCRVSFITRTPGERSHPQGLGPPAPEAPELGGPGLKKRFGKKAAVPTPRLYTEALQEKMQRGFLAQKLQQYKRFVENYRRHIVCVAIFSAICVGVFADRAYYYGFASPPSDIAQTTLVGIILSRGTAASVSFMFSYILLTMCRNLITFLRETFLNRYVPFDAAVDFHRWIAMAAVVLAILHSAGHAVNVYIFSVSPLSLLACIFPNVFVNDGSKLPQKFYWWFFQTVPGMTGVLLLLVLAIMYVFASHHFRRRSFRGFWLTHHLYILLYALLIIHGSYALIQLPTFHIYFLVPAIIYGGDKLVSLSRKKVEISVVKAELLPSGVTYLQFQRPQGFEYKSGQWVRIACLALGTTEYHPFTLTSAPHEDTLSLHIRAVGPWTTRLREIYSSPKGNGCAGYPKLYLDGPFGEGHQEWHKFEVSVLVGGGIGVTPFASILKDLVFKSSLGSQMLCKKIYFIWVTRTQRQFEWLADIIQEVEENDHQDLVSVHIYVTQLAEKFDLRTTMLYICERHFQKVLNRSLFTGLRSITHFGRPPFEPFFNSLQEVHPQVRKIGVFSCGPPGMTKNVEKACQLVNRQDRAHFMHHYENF
Duox2, sequence (Q1HG44 whole entry partner): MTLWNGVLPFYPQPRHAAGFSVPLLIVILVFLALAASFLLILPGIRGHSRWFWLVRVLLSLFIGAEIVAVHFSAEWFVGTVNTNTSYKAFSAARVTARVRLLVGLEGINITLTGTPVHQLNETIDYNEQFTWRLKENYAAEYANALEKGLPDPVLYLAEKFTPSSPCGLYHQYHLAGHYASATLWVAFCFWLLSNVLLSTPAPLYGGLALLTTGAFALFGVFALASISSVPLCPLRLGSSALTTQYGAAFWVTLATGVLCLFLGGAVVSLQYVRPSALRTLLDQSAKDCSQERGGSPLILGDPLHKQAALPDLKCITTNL

Duox1, sequence (Q9NRD9 22-1551): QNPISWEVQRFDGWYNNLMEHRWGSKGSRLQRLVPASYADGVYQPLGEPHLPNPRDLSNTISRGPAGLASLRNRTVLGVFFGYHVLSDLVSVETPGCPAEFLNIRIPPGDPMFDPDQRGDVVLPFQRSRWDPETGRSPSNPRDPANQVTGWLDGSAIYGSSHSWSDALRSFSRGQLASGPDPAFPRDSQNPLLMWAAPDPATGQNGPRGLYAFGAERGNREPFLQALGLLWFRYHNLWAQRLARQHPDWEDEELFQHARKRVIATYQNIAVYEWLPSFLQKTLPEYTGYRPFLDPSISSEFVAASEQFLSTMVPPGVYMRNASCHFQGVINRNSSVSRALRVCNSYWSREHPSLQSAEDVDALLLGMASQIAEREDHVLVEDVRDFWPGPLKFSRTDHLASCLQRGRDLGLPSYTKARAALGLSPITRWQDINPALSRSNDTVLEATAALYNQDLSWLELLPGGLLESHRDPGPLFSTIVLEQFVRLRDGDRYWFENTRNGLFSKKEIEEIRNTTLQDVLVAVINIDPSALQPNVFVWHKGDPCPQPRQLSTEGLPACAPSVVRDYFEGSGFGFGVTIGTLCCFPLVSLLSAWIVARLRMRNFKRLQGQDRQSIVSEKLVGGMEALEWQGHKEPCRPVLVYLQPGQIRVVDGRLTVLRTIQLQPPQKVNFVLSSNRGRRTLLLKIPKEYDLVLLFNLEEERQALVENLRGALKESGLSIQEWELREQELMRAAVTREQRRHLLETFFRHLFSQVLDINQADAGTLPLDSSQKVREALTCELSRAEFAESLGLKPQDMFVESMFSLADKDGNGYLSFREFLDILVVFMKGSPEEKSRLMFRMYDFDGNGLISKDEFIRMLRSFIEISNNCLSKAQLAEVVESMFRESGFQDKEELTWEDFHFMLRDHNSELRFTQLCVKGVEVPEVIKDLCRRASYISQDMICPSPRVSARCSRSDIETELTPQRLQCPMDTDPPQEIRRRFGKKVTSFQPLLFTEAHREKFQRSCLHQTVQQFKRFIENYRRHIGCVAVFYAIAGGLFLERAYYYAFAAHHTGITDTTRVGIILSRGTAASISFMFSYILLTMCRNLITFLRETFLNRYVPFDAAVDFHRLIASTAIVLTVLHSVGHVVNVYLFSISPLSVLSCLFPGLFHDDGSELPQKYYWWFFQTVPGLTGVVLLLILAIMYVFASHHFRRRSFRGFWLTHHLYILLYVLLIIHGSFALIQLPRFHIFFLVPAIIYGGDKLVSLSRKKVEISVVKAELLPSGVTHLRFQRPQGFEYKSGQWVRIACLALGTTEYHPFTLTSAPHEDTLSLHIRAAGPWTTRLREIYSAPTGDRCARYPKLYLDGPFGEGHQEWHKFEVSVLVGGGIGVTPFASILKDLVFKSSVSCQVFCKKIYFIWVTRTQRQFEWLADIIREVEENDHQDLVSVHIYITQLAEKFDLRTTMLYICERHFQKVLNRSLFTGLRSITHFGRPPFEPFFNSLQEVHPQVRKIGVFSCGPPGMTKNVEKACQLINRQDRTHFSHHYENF
Duox1, sequence (Q1HG43 whole entry partner): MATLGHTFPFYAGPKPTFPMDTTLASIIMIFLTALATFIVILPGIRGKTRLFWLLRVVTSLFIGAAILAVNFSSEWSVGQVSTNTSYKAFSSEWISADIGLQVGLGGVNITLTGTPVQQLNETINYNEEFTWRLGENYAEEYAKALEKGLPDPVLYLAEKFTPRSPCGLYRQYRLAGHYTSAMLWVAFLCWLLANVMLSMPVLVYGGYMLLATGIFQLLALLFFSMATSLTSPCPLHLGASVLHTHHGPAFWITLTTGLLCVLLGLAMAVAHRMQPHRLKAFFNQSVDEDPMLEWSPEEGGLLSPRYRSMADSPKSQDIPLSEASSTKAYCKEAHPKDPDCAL

N=C(N)Nc1nc2ccc(Cl)cc2[nH]1 [ClGBI, 5-chloro-2-guanidinobenzimidazole]
IC50 (Duox1): 140 µM
IC50 (Duox2): 110 µM
